# Measurements reported in article PMC9823097, “Dysregulation of PRMT5 in chronic lymphocytic leukemia promotes progression with high risk of Richter’s transformation” (Nature Communications, 2023).
# “And” between values parts separate entries of the source, which are not always exact repeats. Identical values can stand only once.
# Columns and labels:
# HG3 cells = assay: Cell growth curves over 12 days, HG3; assay type: cell-based
# Method: Live cells/mL were counted on days 3, 6, 10, and 12. […] The split factor was calculated at indicated time points by dividing the counted cells/mL by 3E5. Cell growth was extrapolated over time by multiplying the subsequent cell count by the previous split factor. Cell growth is plotted as fold change relative to DMSO-treated cells.
# [1] = system: Eµ-PRMT5/TCL1 Cd19+Cd5+ spleen cells engrafted into immunocompetent C57/BL6J mice; assay: Adoptive transfer of Eµ-PRMT5/TCL1 spleen cells into C57/BL6J mice, treatment study; assay type: in vivo
# Method: For adoptive transfer, viable Cd19^+Cd5^+ cells (5 × 10^6) from the spleen of an Eµ-PRMT5/TCL1 transgenic mouse with active CLL-like leukemia (>80% circulating in peripheral blood) and palpable splenomegaly were engrafted by tail vein into immunocompetent C57/BL6J female mice. Engrafted mice were randomly assigned to treatment conditions: PRT382 10 mg/kg, EPZ015666 50 mg/kg, or vehicle (0.5% methylcellulose, 0.1% tween) at 1-week post engraftment. All treatments were administered by oral gavage 4 contiguous days per week (Mon-Thurs). Predefined euthanasia criteria for mice in all transgenic colonies and murine transplant models were followed and included lethargy, impaired motility, splenomegaly, enlarged lymph nodes and/or superficial lymphoid tumors greater than 1.6 cm in diameter (or cumulative diameter of 1.6 cm if multiple tumors), decrease in body weight (>20%), ruffled fur, hunched back, failure to nest, and loss of appetite.
# HG3 CLL cell line = assay: Global symmetric dimethyl arginine (SDMA) western blot, HG3; assay type: cell-based; conditions: HG3, 72 h treatment
# Excerpt: Proteins extracted from whole-cell lysates were resolved by SDS-PAGE and transferred on nitrocellulose membrane as previously described. CpG685 oligonucleotide was obtained from the OSU Cytogenetics Core Lab. Antibodies used for immunoblots included anti-human PRMT5 (Abcam #ab109451), GAPDH (Millipore Sigma #MAB374), SDMA (Cell Signaling Technology #13222), c-Myc (Cell Signaling Technology #5605S), and β-Actin (Cell Signaling Technology #4967S). Cas9-mediated doxycycline-inducible knockout of PRMT5 utilized a targeted sgRNA (guide sequence: […], PAM: GGG).
# [2] = HG3, continuous exposure over 12 days
smiles,measurement,setting,value
"CON=c1nc[nH]c2c1ccn2[C@@H]1O[C@H]([C@H](O)c2ccc(Cl)c(Cl)c2)[C@@H](O)[C@H]1O.Cl [PRT382, (2 R,3 S,4 R,5 R)-2-[(R)-(3,4-dichlorophenyl)-hydroxy-methyl]-5-[(4Z)-4-methoxyimino-1H-pyrrolo[2,3-d]pyrimidin-7-yl]tetrahydrofuran-3,4-diol hydrochloride]","anti-proliferative potency compared to JNJ-64619178, LLY-283, and PF-06855800",HG3 cells; HG3,similar-to-reduced
same,Rep 1 Live Cells [Fold Change],"HG3 cells; HG3, 1 nM, day 0",1 Fold Change
same,Rep 2 Live Cells [Fold Change],"HG3 cells; HG3, 1 nM, day 0",1 Fold Change
same,Rep 3 Live Cells [Fold Change],"HG3 cells; HG3, 1 nM, day 0",1 Fold Change
same,Rep 1 Live Cells [Fold Change],"HG3 cells; HG3, 1 nM, day 3",5.95 Fold Change
same,Rep 2 Live Cells [Fold Change],"HG3 cells; HG3, 1 nM, day 3",7.45 Fold Change
same,Rep 3 Live Cells [Fold Change],"HG3 cells; HG3, 1 nM, day 3",5.95 Fold Change
same,Rep 1 Live Cells [Fold Change],"HG3 cells; HG3, 1 nM, day 6",46.5092 Fold Change
same,Rep 2 Live Cells [Fold Change],"HG3 cells; HG3, 1 nM, day 6",44.5758 Fold Change
same,Rep 3 Live Cells [Fold Change],"HG3 cells; HG3, 1 nM, day 6",27.1717 Fold Change
same,Rep 1 Live Cells [Fold Change],"HG3 cells; HG3, 1 nM, day 10",425.559 Fold Change
same,Rep 2 Live Cells [Fold Change],"HG3 cells; HG3, 1 nM, day 10",463.589 Fold Change
same,Rep 3 Live Cells [Fold Change],"HG3 cells; HG3, 1 nM, day 10",237.752 Fold Change
same,Rep 1 Live Cells [Fold Change],"HG3 cells; HG3, 1 nM, day 12",1418.53 Fold Change
same,Rep 2 Live Cells [Fold Change],"HG3 cells; HG3, 1 nM, day 12",1486.57 Fold Change
same,Rep 3 Live Cells [Fold Change],"HG3 cells; HG3, 1 nM, day 12",1077.81 Fold Change
same,Rep 1 Live Cells [Fold Change],"HG3 cells; HG3, 10 nM, day 0",1 Fold Change
same,Rep 2 Live Cells [Fold Change],"HG3 cells; HG3, 10 nM, day 0",1 Fold Change
same,Rep 3 Live Cells [Fold Change],"HG3 cells; HG3, 10 nM, day 0",1 Fold Change
same,Rep 1 Live Cells [Fold Change],"HG3 cells; HG3, 10 nM, day 3",6.983 Fold Change
same,Rep 2 Live Cells [Fold Change],"HG3 cells; HG3, 10 nM, day 3",6.833 Fold Change
same,Rep 3 Live Cells [Fold Change],"HG3 cells; HG3, 10 nM, day 3",6.567 Fold Change
same,Rep 1 Live Cells [Fold Change],"HG3 cells; HG3, 10 nM, day 6",48.6506 Fold Change
same,Rep 2 Live Cells [Fold Change],"HG3 cells; HG3, 10 nM, day 6",58.5389 Fold Change
same,Rep 3 Live Cells [Fold Change],"HG3 cells; HG3, 10 nM, day 6",42.7928 Fold Change
same,Rep 1 Live Cells [Fold Change],"HG3 cells; HG3, 10 nM, day 10",471.91 Fold Change
same,Rep 2 Live Cells [Fold Change],"HG3 cells; HG3, 10 nM, day 10",680.515 Fold Change
same,Rep 3 Live Cells [Fold Change],"HG3 cells; HG3, 10 nM, day 10",419.369 Fold Change
same,Rep 1 Live Cells [Fold Change],"HG3 cells; HG3, 10 nM, day 12",1691.01 Fold Change
same,Rep 2 Live Cells [Fold Change],"HG3 cells; HG3, 10 nM, day 12",2381.8 Fold Change
same,Rep 3 Live Cells [Fold Change],"HG3 cells; HG3, 10 nM, day 12",2411.37 Fold Change
same,Rep 1 Live Cells [Fold Change],"HG3 cells; HG3, 100 nM, day 0",1 Fold Change
same,Rep 2 Live Cells [Fold Change],"HG3 cells; HG3, 100 nM, day 0",1 Fold Change
same,Rep 3 Live Cells [Fold Change],"HG3 cells; HG3, 100 nM, day 0",1 Fold Change
same,Rep 1 Live Cells [Fold Change],"HG3 cells; HG3, 100 nM, day 3",3.433 Fold Change
same,Rep 2 Live Cells [Fold Change],"HG3 cells; HG3, 100 nM, day 3",6.117 Fold Change
same,Rep 3 Live Cells [Fold Change],"HG3 cells; HG3, 100 nM, day 3",4.417 Fold Change
same,Rep 1 Live Cells [Fold Change],"HG3 cells; HG3, 100 nM, day 6",12.7033 Fold Change
same,Rep 2 Live Cells [Fold Change],"HG3 cells; HG3, 100 nM, day 6",20.7661 Fold Change
same,Rep 3 Live Cells [Fold Change],"HG3 cells; HG3, 100 nM, day 6",13.7726 Fold Change
same,Rep 1 Live Cells [Fold Change],"HG3 cells; HG3, 100 nM, day 10",31.282 Fold Change
same,Rep 2 Live Cells [Fold Change],"HG3 cells; HG3, 100 nM, day 10",112.137 Fold Change
same,Rep 3 Live Cells [Fold Change],"HG3 cells; HG3, 100 nM, day 10",30.472 Fold Change
same,Rep 1 Live Cells [Fold Change],"HG3 cells; HG3, 100 nM, day 12",66.0571 Fold Change
same,Rep 2 Live Cells [Fold Change],"HG3 cells; HG3, 100 nM, day 12",233.431 Fold Change
same,Rep 3 Live Cells [Fold Change],"HG3 cells; HG3, 100 nM, day 12",63.4325 Fold Change
same,Rep 1 Live Cells [Fold Change],"HG3 cells; HG3, 1 µM, day 0",1 Fold Change
same,Rep 2 Live Cells [Fold Change],"HG3 cells; HG3, 1 µM, day 0",1 Fold Change
same,Rep 3 Live Cells [Fold Change],"HG3 cells; HG3, 1 µM, day 0",1 Fold Change
same,Rep 1 Live Cells [Fold Change],"HG3 cells; HG3, 1 µM, day 3",3.05 Fold Change
same,Rep 2 Live Cells [Fold Change],"HG3 cells; HG3, 1 µM, day 3",6.15 Fold Change
same,Rep 3 Live Cells [Fold Change],"HG3 cells; HG3, 1 µM, day 3",3.933 Fold Change
same,Rep 1 Live Cells [Fold Change],"HG3 cells; HG3, 1 µM, day 6",3.162 Fold Change
same,Rep 2 Live Cells [Fold Change],"HG3 cells; HG3, 1 µM, day 6",4.9815 Fold Change
same,Rep 3 Live Cells [Fold Change],"HG3 cells; HG3, 1 µM, day 6",4.615 Fold Change
same,Rep 1 Live Cells [Fold Change],"HG3 cells; HG3, 1 µM, day 10",2.64 Fold Change
same,Rep 2 Live Cells [Fold Change],"HG3 cells; HG3, 1 µM, day 10",3.873 Fold Change
same,Rep 3 Live Cells [Fold Change],"HG3 cells; HG3, 1 µM, day 10",1.218 Fold Change
same,Rep 1 Live Cells [Fold Change],"HG3 cells; HG3, 1 µM, day 12",1.11 Fold Change
same,Rep 2 Live Cells [Fold Change],"HG3 cells; HG3, 1 µM, day 12",5.3136 Fold Change
same,Rep 3 Live Cells [Fold Change],"HG3 cells; HG3, 1 µM, day 12",0.1619 Fold Change
same,dose at which growth inhibition begins,HG3 cells; [2],100 nM
same,effect on growth potential (cell growth),HG3 cells; [2],time and dose-dependent growth inhibition
same,Week 1 CD19+/B220dim,"[1]; Figure 7F, per mouse, week 1, in % (unit assumed)",14.94 and 11.13 and 14.86 and 15.24 and 10.03 and 10.93 and 22.62 and 11.33 and 10.17 and 14.2
same,Week 2 CD19+/B220dim,"[1]; Figure 7F, per mouse, week 2, in % (unit assumed)",13.43 and 12.86 and 10.14 and 23.82 and 13.56 and 16.79 and 25.72 and 21.61 and 19.95 and 20.17
same,Week 3 CD19+/B220dim,"[1]; Figure 7F, per mouse, week 3, in % (unit assumed)",26.89 and 23.33 and 20.67 and 34.07 and 24.63 and 26.03 and 34.34 and 21.21 and 26.17 and 22.42
same,Week 4 CD19+/B220dim,"[1]; Figure 7F, per mouse, week 4, in % (unit assumed)",41.39 and 38.3 and 24.43 and 39.63 and 41.81 and 49.51 and 51.09 and 40.09 and 18.3 and 35.71
same,Week 5 CD19+/B220dim,"[1]; Figure 7F, per mouse, week 5",59.47 and 50.76 and 31.63 and 42.2 and 57.43 and 71.78 and 71.22 and 54.4 and 38.84 and 43.16
same,Week 6 CD19+/B220dim,"[1]; Figure 7F, per mouse, week 6, in % (unit assumed)",77.7 and 46.25 and 37.53 and 72.87 and 45.24 and 51.74 and 53.46 and 63.05 and 57.02 and 47.66
same,Week 7 CD19+/B220dim,"[1]; Figure 7F, per mouse, week 7, in % (unit assumed)",84.05 and 64.76 and 55.81 and 74.55 and 67.6 and 65.33 and 67.88 and 74.71 and 65.7 and 77.54
same,Week 8 CD19+/B220dim,"[1]; Figure 7F, per mouse, week 8",89.79 and 78.47 and 68.08 and 80.27 and 72.86 and 72.85 and 63.41 and 82.55 and 81.05 and 82.92
same,Week 9 CD19+/B220dim,"[1]; Figure 7F, per mouse, week 9",91.31 and 75.18 and 73.48 and 85.11 and 81.63 and 77.6 and 71.82 and 88.55 and 87.37 and 84.51
same,Week 10 CD19+/B220dim,"[1]; Figure 7F, per mouse, week 10, in % (unit assumed)",76.49 and 84.3 and 76.64 and 83.91 and 87.5 and 87.78 and 77.93 and 88.18 and 89.1 and 91.37
same,Week 11 CD19+/B220dim,"[1]; Figure 7F, per mouse, week 11, in % (unit assumed)",84.23 and 77.24 and 87.2 and 87.38 and 85.21 and 81.05 and 94.62 and 92.7 and 90.88
same,Week 12 CD19+/B220dim,"[1]; Figure 7F, per mouse, week 12",87.17 and 83.54 and 90.72 and 88.55 and 85.11
same,Week 13 CD19+/B220dim,"[1]; Figure 7F, per mouse, week 13, in % (unit assumed)",69.75 and 81.14 and 92.04 and 85.97 and 82.89
same,Endpoint,"[1]; Figure 7G, survival endpoint indicator, per mouse",1
same,Days since enrollment,"[1]; Figure 7G, survival, per mouse",64 days and 85 days and 92 days and 71 days and 84 days
same,Spleen weight,"[1]; Figure 7H, per mouse",0.86 g and 1.01 g and 0.37 g and 0.52 g and 0.24 g and 0.7 g and 0.84 g
same,survival compared to EPZ015666 or vehicle,[1]; PRT382 10 mg/kg,significant extension in survival
same,"hazard ratio, PRT382 vs EPZ015666 (Mantel–Cox)","[1]; PRT382 10 mg/kg vs EPZ015666 50 mg/kg, survival",0.65
same,"PRMT5 target modulation, immunoblot of splenic B cells","[1]; PRT382 10 mg/kg, EPZ015666 50 mg/kg",confirmed PRMT5 target modulation
same,Median survival post-enrollment,"[1]; PRT382 10 mg/kg, EPZ015666 50 mg/kg, oral gavage 4 contiguous days per week",77 days
same,"hazard ratio, PRT382 vs vehicle (Mantel–Cox)","[1]; PRT382 10 mg/kg, survival",0.21
same,spleen weight and volume compared to EPZ015666 or vehicle,[1]; at ERC,significantly reduced weight and volume
same,"leukemic expansion across non-lymphoid tissues (histopathology, liver)",[1]; compared with vehicle or EPZ015666-treated mice,decrease in leukemic expansion
same,Spleen volume,"[1]; individual mice, Supplemental Figure 6F",645.24 mm3 and 1183.96 mm3 and 457.289 mm3 and 271.152 mm3 and 253.789 mm3 and 859.967 mm3 and 562.493 mm3
same,rate of peripheral disease (CLL-like cells in peripheral blood),"[1]; weeks 2-7 post engraftment, compared to EPZ015666 or vehicle",reduced the rate of peripheral disease
same,lowest dose with decrease in global SDMA residues,HG3 CLL cell line,100 nM
